Data from US20140005163A1 (NOVARTIS AG, priority 2010, published 2014).
≈ marks a conversion by molar mass, not a printed value.

How the values were obtained:
PI3K beta = biological target: T1, PI3K beta (Homo sapiens, UniProt P42338); experiment: PI3K beta kinase assay (Kinase-Glo luminescence); type: biochemical
T1 construct: for the full-length p110-b subunit are generated and fused by overlapping PCR; p85(iSH2) fusion partner (see partner chain) (N); His tag (C); made in house; host or cells: baculovirus; Tn5 (Trichoplusia ni) or TiniPro insect cells
How it was run: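 IC50 is derived by four-parameter logistic curve fitting of Kinase-Glo luminescence, which measures ATP left after a 60 min room-temperature reaction. Conditions are 25 nM His-tagged p85(iSH2)-p110β, 1 μM ATP and 10 μg/mL bovine liver phosphatidylinositol.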

[1] = test system: PKB Ser473 phosphorylation in Rat1-myr-HA-p110 alpha cells; experiment: Reverse protein array assay, PKB Ser473 phosphorylation in Rat1-myr-p110 alpha cells; type: cell-based; details: 0.5 h, pAkt Ser473, 30 minutes compound incubation, read-out: p-PKB IC50
How it was run: (§1)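 Compound exposure lasted 30 min in Rat1 cells bearing membrane-targeted HA-p110 isoforms, using 8 serial concentrations. Arrayed lysates, each spotted at four dilutions, gave relative fluorescence signals for phospho-Ser473 PKB.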

[2] = test system: PKB Ser473 phosphorylation in Rat1-myr-HA-p110 beta cells; experiment: Reverse protein array assay, PKB Ser473 phosphorylation in Rat1-myr-p110 beta cells; type: cell-based; details: 0.5 h, pAkt Ser473, 30 minutes incubation, read-out: p-PKB IC50
How it was run: as §1

PI3K alpha = biological target: T2, PI3K alpha (Homo sapiens, UniProt P42336); experiment: PI3K alpha kinase assay (Kinase-Glo luminescence); type: biochemical
T2 construct: p85(iSH2) fusion partner (see partner chain) (N); His tag (C); made in house; host or cells: baculovirus; Tn5 (Trichoplusia ni) or TiniPro insect cells
How it was run: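 Read-out: Kinase-Glo luminescence of ATP left after 60 min at room temperature. Conditions: 10 nM PI3Kα (EMV B1075), 1 μM ATP, 10 μg/mL PI substrate, Tris pH 7.5 buffer with MgCl2, NaCl, CHAPS and DTT. IC50s fitted with a four-parameter logistic model.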

mTOR = biological target: T3, mTOR (Homo sapiens, UniProt P42345); experiment: Biochemical assay for m-TOR by TR-FRET; details: 8 μM ATP, 400 nM GFP-4EBP1, 0.5 nM mTOR
T3 construct: purchased Invitrogen Corporation (Carlsbad/CA, USA) PV4753
How it was run: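 Enzyme 0.5 nM, GFP-4EBP1 400 nM, ATP 8 μM (all final); 50 mM HEPES pH 7.5, 10 mM MnCl2, 1 mM DTT; rt. Detection: Tb-α-p4EBP1 [pT46] 0.5 nM in EDTA, TR-FRET, 15 min. Reference compound on every plate, 16-point duplicate dilutions.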

PI3K gamma = biological target: T4, PI3K gamma (Homo sapiens, UniProt P48736); experiment: PI3K gamma kinase assay (Kinase-Glo luminescence); type: biochemical
T4 construct: His tag (C); made in house; host or cells: baculovirus (pVL1393); Tn5 or TiniPro insect cells; construct from Roger Williams lab, MRC LMB
Protocol: In a more preferred assay, the kinase reaction is performed in a final volume of 10 μL per well of a low volume non binding CORNING, 384 well black plate (Cat. No. #3676). The final concentrations of ATP and phosphatidyl inositol (PI) in the assay are 1 μM and 10 μg/mL respectively. The reaction is started by the addition of ATP.
The components of the assay are added per well as follows:
[…] in 90% DMSO per well, in columns 1-20, 8 concentrations (1/3 and 1/3.33 serial dilution step) in single. • Low control: […] of 90% DMSO in half the wells of columns 23-24 (0.45% in final). • High control: […] of reference compound (e.g. compound of Example 7 in WO 2006/122806) in the other half of columns 23-24 (2.5 μM in final). • Standard: […] of reference compound as just mentioned diluted as the test compounds in columns 21-22 • 20 mL ‘buffer’ are prepared per assay: • 200 μL of 1M TRIS HCl pH7.5 (10 mM in final) • 60 μL of 1M MgCl2 (3 mM in final) • 500 μL of 2M NaCl (50 mM in final) • 100 μL of 10% CHAPS (0.05% in final) • 200 μL of 100 mM DTT (1 mM in final) • 18.94 mL of nanopure water • 10 mL ‘PI’ are prepared per assay: • 200 μL of 1 mg/ml L-alpha-Phosphatidylinositol (Liver Bovine, Avanti Polar Lipids Cat. No. 840042C MW=909.12) prepared in 3% OctylGlucoside (10 μg/ml in final) • 9.8 mL of ‘buffer’ • 10 mL ‘ATP’ are prepared per assay: • 6.7 μL of 3 mM stock of ATP giving a final concentration of 1 μM per well • 10 mL of ‘buffer’ • 2.5 mL of each PI3K construct are prepared per assay in ‘PI’ with the following final concentration: • 10 nM PI3K alfa EMV B1075 • 25 nM beta EMV BV949 • 10 nM delta EMV BV1060 • 150 nM gamma EMV BV950 • 5 μL of ‘PI/PI3K’ are added per well. • 5 μl ‘ATP’ are added per well to start the reaction. • The plates are then incubated at room temperature for 60 minutes (alfa, beta, delta) or 120 minutes (gamma). • The reaction is terminated by the addition of 10 μL Kinase-Glo (Promega Cat. No. #6714). • The assay plates are read after 10 minutes in Synergy 2 reader (BioTek, Vermont USA) with an integration time of 100 milliseconds and sensitivity set to 191. • Output: The High control is around 60'000 counts and the Low control is 30'000 or lower • This luminescence assay gives a useful Z′ ratio between 0.4 and 0.7
IC50 is determined by a four parameter curve fitting routine that comes along with “excel fit”. […] Alternatively, IC50 values are calculated using idbsXLfit model 204, which is a 4 parameter logistic model.

[3] = test system: PKB Ser473 phosphorylation in Rat1-myr-HA-p110 delta cells; experiment: Reverse protein array assay, PKB Ser473 phosphorylation in Rat1-myr-p110 delta cells; type: cell-based; details: read-out: p-PKB IC50
How it was run: as §1

PI3K delta = biological target: T5, PI3K delta (Homo sapiens, UniProt O00329); experiment: PI3K delta kinase assay (Kinase-Glo luminescence); type: biochemical
T5 construct: for the full-length p110-d subunit are generated and fused by overlapping PCR; p85(iSH2) fusion partner (see partner chain) (N); His tag (C); made in house; host or cells: baculovirus; Tn5 (Trichoplusia ni) or TiniPro insect cells
How it was run: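 Kinase-Glo luminescence read-out of ATP remaining after 60 min at RT. Enzyme: 10 nM BV1060 (p85 iSH2–p110δ fusion, His-tagged); substrate 10 μg/mL PI, ATP 1 μM final; Tris pH 7.5 buffer with MgCl2, NaCl, CHAPS, DTT. IC50 from 4-parameter logistic fit over 8 concentrations.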

[4] = test system: S6 Ribosomal Protein phosphorylation Ser235/236 in TSC1 null mouse embryo fibroblast (MEF) cells; experiment: Reverse protein array assay, S6 Ribosomal Protein phosphorylation Ser235/236 in TSC1 null MEF cells; type: cell-based; details: 1 h, pS6 ribosomal protein Ser235/236, 60 minutes incubation, read-out: p-S6 IC50
How it was run: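 TSC1−/− MEFs, seeded and held ≥20 h at 37 °C/5% CO2, were exposed to 8-step serial compound dilutions (0.02% DMSO final; DMSO vehicle control) for 60 min at 37 °C. Cells were then lysed on ice for 10 min and lysates spotted onto reverse protein array chips.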

Solubility at pH 6.8 = type: physicochemical; details: pH 6.8
How it was run: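 Following the procedure of Zhou et al. (2007), compound solubility was determined at pH 6.8.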

T3 sequence (P42345 1360-2549 limits assumed): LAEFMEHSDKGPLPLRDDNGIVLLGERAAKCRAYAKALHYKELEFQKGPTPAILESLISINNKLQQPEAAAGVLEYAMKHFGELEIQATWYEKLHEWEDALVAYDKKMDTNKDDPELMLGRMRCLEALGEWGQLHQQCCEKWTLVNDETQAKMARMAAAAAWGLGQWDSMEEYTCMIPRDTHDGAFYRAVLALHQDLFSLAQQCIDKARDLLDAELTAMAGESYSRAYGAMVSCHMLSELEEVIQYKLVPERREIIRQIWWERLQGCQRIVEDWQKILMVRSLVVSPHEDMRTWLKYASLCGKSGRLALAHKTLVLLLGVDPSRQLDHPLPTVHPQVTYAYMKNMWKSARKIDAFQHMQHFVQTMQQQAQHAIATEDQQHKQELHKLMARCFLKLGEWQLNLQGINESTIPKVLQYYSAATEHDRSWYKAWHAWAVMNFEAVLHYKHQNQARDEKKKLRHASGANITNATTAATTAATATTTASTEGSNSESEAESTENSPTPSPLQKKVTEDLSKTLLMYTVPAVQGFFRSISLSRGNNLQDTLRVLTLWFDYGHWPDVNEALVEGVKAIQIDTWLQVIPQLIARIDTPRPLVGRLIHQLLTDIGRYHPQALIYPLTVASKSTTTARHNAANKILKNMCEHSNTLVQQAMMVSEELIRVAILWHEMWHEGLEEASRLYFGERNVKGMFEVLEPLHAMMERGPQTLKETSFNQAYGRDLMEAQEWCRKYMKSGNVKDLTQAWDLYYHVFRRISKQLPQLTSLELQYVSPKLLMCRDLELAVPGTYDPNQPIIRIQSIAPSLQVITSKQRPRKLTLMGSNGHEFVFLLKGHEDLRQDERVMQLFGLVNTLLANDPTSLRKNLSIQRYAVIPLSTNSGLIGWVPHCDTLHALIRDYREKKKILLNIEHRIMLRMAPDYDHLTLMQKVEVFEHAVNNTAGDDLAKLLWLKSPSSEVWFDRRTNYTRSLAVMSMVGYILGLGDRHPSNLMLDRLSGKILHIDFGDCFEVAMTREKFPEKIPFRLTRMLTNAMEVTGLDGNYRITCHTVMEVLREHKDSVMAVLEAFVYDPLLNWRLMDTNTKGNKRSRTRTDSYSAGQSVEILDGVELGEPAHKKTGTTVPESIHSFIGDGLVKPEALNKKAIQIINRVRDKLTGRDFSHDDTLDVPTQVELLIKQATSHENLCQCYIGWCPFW
T2 sequence (P42336 with tags, fused parts or gaps limits assumed): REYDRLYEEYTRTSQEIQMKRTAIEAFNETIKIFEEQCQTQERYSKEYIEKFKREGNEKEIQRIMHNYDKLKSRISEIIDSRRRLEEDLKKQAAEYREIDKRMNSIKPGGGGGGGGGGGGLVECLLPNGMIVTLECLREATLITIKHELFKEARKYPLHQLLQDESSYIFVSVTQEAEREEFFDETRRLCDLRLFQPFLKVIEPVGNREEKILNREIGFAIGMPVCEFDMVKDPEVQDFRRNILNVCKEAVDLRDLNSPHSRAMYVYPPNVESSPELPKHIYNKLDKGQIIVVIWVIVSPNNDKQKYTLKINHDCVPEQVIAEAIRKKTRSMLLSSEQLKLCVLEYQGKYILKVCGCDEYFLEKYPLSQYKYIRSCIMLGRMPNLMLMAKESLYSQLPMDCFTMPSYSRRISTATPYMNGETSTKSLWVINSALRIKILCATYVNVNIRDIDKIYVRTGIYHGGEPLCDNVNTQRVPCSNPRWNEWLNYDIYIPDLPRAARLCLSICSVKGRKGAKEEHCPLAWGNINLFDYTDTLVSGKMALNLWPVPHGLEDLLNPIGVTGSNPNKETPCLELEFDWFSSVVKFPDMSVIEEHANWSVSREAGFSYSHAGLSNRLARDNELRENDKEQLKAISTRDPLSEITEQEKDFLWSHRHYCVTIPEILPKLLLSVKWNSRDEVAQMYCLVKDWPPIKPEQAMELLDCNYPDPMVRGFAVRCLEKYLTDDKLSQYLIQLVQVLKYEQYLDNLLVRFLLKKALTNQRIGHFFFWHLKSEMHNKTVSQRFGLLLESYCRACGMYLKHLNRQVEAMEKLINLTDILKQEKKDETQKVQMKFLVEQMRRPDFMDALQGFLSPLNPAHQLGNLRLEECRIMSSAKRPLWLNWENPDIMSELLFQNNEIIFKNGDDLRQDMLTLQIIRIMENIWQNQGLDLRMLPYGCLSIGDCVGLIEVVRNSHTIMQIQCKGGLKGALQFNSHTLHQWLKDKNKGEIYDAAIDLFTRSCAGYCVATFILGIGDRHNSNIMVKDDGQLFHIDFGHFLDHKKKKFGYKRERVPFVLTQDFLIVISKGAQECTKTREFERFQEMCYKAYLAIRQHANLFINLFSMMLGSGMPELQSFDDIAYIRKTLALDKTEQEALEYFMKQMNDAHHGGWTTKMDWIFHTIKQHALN
T1 sequence (P42338 with tags, fused parts or gaps limits assumed): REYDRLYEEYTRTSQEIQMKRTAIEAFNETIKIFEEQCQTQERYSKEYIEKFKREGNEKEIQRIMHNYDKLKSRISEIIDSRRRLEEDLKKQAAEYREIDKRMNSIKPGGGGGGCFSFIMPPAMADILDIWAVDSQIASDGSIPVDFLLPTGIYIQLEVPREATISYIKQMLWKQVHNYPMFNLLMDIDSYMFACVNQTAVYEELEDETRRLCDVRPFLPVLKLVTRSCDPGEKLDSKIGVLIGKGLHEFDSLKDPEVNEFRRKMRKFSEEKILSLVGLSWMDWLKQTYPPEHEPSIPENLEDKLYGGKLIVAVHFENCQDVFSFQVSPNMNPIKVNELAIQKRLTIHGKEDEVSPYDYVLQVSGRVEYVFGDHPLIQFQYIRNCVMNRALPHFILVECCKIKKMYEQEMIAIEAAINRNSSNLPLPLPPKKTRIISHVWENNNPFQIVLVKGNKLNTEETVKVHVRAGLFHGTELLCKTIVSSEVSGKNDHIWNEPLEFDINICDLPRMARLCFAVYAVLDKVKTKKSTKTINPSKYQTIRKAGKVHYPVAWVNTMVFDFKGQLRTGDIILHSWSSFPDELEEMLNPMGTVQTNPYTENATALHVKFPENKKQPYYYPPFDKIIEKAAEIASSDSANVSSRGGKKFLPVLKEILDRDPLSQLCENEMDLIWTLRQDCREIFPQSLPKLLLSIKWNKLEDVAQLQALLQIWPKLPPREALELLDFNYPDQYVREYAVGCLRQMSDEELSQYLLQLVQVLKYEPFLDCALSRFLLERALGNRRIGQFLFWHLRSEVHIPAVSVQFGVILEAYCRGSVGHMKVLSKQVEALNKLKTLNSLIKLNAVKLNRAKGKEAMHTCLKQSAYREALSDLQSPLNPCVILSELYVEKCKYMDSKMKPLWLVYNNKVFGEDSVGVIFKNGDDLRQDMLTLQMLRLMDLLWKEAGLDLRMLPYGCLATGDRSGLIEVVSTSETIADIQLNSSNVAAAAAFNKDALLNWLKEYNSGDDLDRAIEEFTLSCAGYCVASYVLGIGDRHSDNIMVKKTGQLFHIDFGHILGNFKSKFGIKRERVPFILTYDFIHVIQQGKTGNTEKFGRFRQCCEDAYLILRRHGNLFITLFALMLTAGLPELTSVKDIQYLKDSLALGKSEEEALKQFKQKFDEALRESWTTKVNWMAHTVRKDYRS
T5 sequence (O00329 with tags, fused parts or gaps limits assumed): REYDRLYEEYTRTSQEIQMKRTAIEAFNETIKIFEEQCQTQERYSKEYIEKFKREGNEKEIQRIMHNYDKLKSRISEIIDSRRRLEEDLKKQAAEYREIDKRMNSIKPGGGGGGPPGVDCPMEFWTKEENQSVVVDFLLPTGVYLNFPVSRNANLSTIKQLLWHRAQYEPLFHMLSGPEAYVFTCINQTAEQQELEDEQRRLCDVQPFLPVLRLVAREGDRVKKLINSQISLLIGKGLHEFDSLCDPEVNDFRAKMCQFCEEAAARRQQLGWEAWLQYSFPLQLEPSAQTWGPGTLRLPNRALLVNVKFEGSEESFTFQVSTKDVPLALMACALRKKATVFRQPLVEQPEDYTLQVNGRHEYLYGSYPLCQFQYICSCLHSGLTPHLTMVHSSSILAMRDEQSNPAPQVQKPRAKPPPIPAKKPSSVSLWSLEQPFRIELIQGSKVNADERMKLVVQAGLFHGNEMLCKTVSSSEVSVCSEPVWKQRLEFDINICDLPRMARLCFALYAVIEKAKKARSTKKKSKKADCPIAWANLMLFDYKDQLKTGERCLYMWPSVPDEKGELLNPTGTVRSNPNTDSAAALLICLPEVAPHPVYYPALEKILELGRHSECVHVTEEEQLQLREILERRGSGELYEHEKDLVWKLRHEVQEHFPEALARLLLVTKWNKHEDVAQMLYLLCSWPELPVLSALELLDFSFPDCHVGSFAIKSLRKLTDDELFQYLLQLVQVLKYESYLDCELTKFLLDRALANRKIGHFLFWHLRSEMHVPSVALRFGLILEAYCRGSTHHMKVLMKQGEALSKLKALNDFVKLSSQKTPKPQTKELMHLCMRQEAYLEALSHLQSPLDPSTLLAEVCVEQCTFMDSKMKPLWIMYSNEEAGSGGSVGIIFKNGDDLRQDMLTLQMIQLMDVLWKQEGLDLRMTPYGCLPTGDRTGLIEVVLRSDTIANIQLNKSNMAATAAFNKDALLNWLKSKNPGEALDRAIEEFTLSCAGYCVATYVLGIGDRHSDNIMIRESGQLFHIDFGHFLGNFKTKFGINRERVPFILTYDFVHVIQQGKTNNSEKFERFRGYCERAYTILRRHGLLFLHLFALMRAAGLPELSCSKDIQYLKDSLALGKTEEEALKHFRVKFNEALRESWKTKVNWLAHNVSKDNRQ

| SMILES | IC50 (PI3K beta) [nM] | IC50 [1] [nM] | IC50 [2] [nM] | IC50 (PI3K alpha) [nM] | IC50 (mTOR) [nM] | IC50 (PI3K gamma) [nM] | IC50 [3] [nM] | IC50 (PI3K delta) [nM] | IC50 [4] [nM] | solubility (Solubility at pH 6.8) [µg/mL] |
| --- | --- | --- | --- | --- | --- | --- | --- | --- | --- | --- |
| CCn1nccc1-n1c(=O)n(C)c2cnc3ccc(-c4ccc(OC)c(OC)c4)cc3c21 [Example 1.2, 8-(3,4-Dimethoxy-phenyl)-1-(2-ethyl-2H-pyrazol-3-yl)-3-methyl-1,3-dihydro-imidazo[4,5-c]quinolin-2-one] | 280 | 33 | 21 | 50 | 155 | 216 | 66 | 61 |  |  |
| COc1ccc(-c2ccc3ncc4c(c3c2)n(-c2cn(C)nc2Cl)c(=O)n4C)cc1OC [Example 1.10, 1-(3-Chloro-1-methyl-1H-pyrazol-4-yl)-8-(3,4-dimethoxy-phenyl)-3-methyl-1,3-dihydro-imidazo[4,5-c]quinolin-2-one] | 6 | < 5 | < 5 | 9 |  | 238 | 5 | 10 | 1 |  |
| CCn1nccc1-n1c(=O)n(C)c2cnc3ccc(-c4ccc(OC)nc4)cc3c21 [Example 2.6, 1-(2-Ethyl-2H-pyrazol-3-yl)-8-(6-methoxy-pyridin-3-yl)-3-methyl-1,3-dihydro-imidazo[4,5-c]quinolin-2-one] | 612 | 141 | 136 | 146 | 162 | 788 | 219 | 85 |  |  |
| COc1ncc(-c2ccc3ncc4c(c3c2)n(-c2cn(C)nc2C)c(=O)n4C)cc1F [Example 13, 1-(1,3-Dimethyl-1H-pyrazol-4-yl)-8-(5-fluoro-6-methoxy-pyridin-3-yl)-3-methyl-1,3-dihydro-imidazo[4,5-c]quinolin-2-one] | 25 |  |  | 12 | 63 | 87 |  | 15 | 10 |  |
| Cc1nn(C)cc1-n1c(=O)n(C)c2cnc3ccc(-c4ccc(NCCO)nc4)cc3c21 [Example 21.2] | 205 | 375 | 273 | 32 |  | 391 | 602 | 18 | 666 |  |
| COc1cc(-c2ccc3ncc4c(c3c2)n(-c2c(C)nn(C)c2C)c(=O)n4C)ccc1O [Example 31, 8-(4-Hydroxy-3-methoxy-phenyl)-3-methyl-1-(1,3,5-trimethyl-1H-pyrazol-4-yl)-1,3-dihydro-imidazo[4,5-c]quinolin-2-one] | 67 | 29 | 49 | 29 | 177 | 118 | 64 | 30 |  |  |
| Cc1nn(C)cc1-n1c(=O)n(C)c2cnc3ccc(-c4cc(O)cc(F)c4)cc3c21 [Example 33, 1-(1,3-Dimethyl-1H-pyrazol-4-yl)-8-(3-fluoro-5-hydroxy-phenyl)-3-methyl-1,3-dihydro-imidazo[4,5-c]quinolin-2-one] | 46 | 162 | 214 | 9 | 110 | 128 | 399 | 16 |  |  |
| Cc1nn(C)cc1-n1c(=O)n(C)c2cnc3ccc(-c4ccc(C(=O)N(C)C)cc4)cc3c21 [Example 48, 4-[1-(1,3-Dimethyl-1H-pyrazol-4-yl)-3-methyl-2-oxo-2,3-dihydro-1H-imidazo[4,5-c]quinolin-8-yl]-N,N-dimethyl-benzamide] |  |  |  |  |  | 760 |  |  |  | 2 (≈ 4.54 µM) |
| COc1ccc(-c2ccc3ncc4c(c3c2)n(-c2cn(CC(=O)O)nc2C)c(=O)n4C)cn1 [Example 101, {4-[8-(6-Methoxy-pyridin-3-yl)-3-methyl-2-oxo-2,3-dihydro-imidazo[4,5-c]quinolin-1-yl]-3-methyl-pyrazol-1-yl}-acetic acid] | 23 |  |  | 5 | < 3 | 138 |  | 15 |  |  |
| Cc1nn(C)cc1-n1c(=O)n(C)c2cnc3ccc(-c4cncc(NS(C)(=O)=O)c4)cc3c21 [Example 120, N-{5-[1-(1,3-Dimethyl-1H-pyrazol-4-yl)-3-methyl-2-oxo-2,3-dihydro-1H-imidazo[4,5-c]quinolin-8-yl]-pyridin-3-yl}-methanesulfonamide] | 18 |  |  | 11 | 5 | 116 |  | 10 | 355 |  |
| COc1ncc(-c2ccc3ncc4c(c3c2)n(-c2cn(C)nc2C)c(=O)n4C)cc1C(=O)O [Example 124, 5-[1-(1,3-Dimethyl-1H-pyrazol-4-yl)-3-methyl-2-oxo-2,3-dihydro-1H-imidazo[4,5-c]quinolin-8-yl]-2-methoxy-nicotinic acid] | 83 |  |  | 37 | 53 | 118 |  | 20 |  |  |
